Results from US9073821B2, “Hydroxamic acid derivative” (priority 2010, dated 2015).

Target: Pseudomonas aeruginosa LpxC enzyme (Pseudomonas aeruginosa (strain ATCC 15692 / DSM 22644 / CIP 104116 / JCM 14847 / LMG 12228 / 1C / PRS 101 / PAO1), UniProt P47205)
Assay: biochemical
Assay type: biochemical
Details: inhibitory activity on Pseudomonas aeruginosa LpxC enzyme, class symbols A/B/C; read-out: Enzyme inhibitory activity

| Compound | IC50 [nM] |
| --- | --- |
| O=C(NC(C(=O)NO)C(=O)NCCOc1ccccc1)c1ccc(-c2ccc(OCCO)cc2)cc1 (centres unmarked) [Compound 138, N-hydroxy-2-({[4′-(2-hydroxyethoxy)biphenyl-4-yl]carbonyl}amino)-N′-(2-phenoxyethyl)propanediamide] | < 10 |
| CCNC(=O)C(NC(=O)c1ccc(-c2ccc(OCCO)cc2)cc1)C(=O)NO (centres unmarked) [Compound 139, N-ethyl-N′-hydroxy-2-({[4′-(2-hydroxyethoxy)biphenyl-4-yl]carbonyl}amino)propanediamide] | 10 to 100 |
| Cn1ccc(CNC(=O)C(NC(=O)c2ccc(-c3ccc(OCCO)cc3)cc2)C(=O)NO)n1 (centres unmarked) [Compound 140, N-hydroxy-2-({[4′-(2-hydroxyethoxy)biphenyl-4-yl]carbonyl}amino)-N′-[(1-methyl-1H-pyrazol-3-yl)methyl]propanediamide] | < 10 |
| O=C(NC(C(=O)NO)C(=O)NCC(=O)N1CCCC1)c1ccc(-c2ccc(OCCO)cc2)cc1 (centres unmarked) [Compound 141, N-hydroxy-2-({[4′-(2-hydroxyethoxy)biphenyl-4-yl]carbonyl}amino)-N′-[2-oxo-2-(pyrrolidin-1-yl)ethyl]propanediamide] | < 10 |
| CCCNC(=O)C(NC(=O)c1ccc(-c2ccc(OCCO)cc2)cc1)C(=O)NO (centres unmarked) [Compound 142, N-hydroxy-2-({[4′-(2-hydroxyethoxy)biphenyl-4-yl]carbonyl}amino)-N′-propylpropanediamide] | 10 to 100 |
| CC(C)NC(=O)C(NC(=O)c1ccc(-c2ccc(OCCO)cc2)cc1)C(=O)NO (centres unmarked) [Compound 143, N-hydroxy-2-({[4′-(2-hydroxyethoxy)biphenyl-4-yl]carbonyl}amino)-N′-(propan-2-yl)propanediamide] | 10 to 100 |
| CN(C)C(=O)CNC(=O)C(NC(=O)c1ccc(-c2ccc(OCCO)cc2)cc1)C(=O)NO (centres unmarked) [Compound 144, N-[2-(dimethylamino)-2-oxoethyl]-N′-hydroxy-2-({[4′-(2-hydroxyethoxy)biphenyl-4-yl]carbonyl}amino)propanediamide] | < 10 |
| CC(=O)N(C)CCNC(=O)C(NC(=O)c1ccc(-c2ccc(OCCO)cc2)cc1)C(=O)NO (centres unmarked) [Compound 145, N-{2-[acetyl(methyl)amino]ethyl}-N′-hydroxy-2-({[4′-(2-hydroxyethoxy)biphenyl-4-yl]carbonyl}amino)propanediamide] | 10 to 100 |
| Cn1nccc1CNC(=O)C(NC(=O)c1ccc(-c2ccc(OCCO)cc2)cc1)C(=O)NO (centres unmarked) [Compound 146, N-hydroxy-2-({[4′-(2-hydroxyethoxy)biphenyl-4-yl]carbonyl}amino)-N′-[(1-methyl-1H-pyrazol-5-yl)methyl]propanediamide] | < 10 |
| Cn1cc(CNC(=O)C(NC(=O)c2ccc(-c3ccc(OCCO)cc3)cc2)C(=O)NO)cn1 (centres unmarked) [Compound 147, N-hydroxy-2-({[4′-(2-hydroxyethoxy)biphenyl-4-yl]carbonyl}amino)-N′-[(1-methyl-1H-pyrazol-4-yl)methyl]propanediamide] | < 10 |
| O=C(NC(C(=O)NO)C(=O)NO)c1ccc(-c2ccc(OCCO)cc2)cc1 [Compound 148, N,N′-dihydroxy-2-({[4′-(2-hydroxyethoxy)biphenyl-4-yl]carbonyl}amino)propanediamide] | 10 to 100 |
| O=C(NC(C(=O)NO)C(=O)NCC1COc2ccccc2O1)c1ccc(-c2ccc(OCCO)cc2)cc1 (centres unmarked) [Compound 149, N-(2,3-dihydro-1,4-benzodioxin-2-ylmethyl)-N′-hydroxy-2-({[4′-(2-hydroxyethoxy)biphenyl-4-yl]carbonyl}amino)propanediamide] | < 10 |
| Cc1cccc(CNC(=O)C(NC(=O)c2ccc(-c3ccc(OCCO)cc3)cc2)C(=O)NO)n1 (centres unmarked) [Compound 150, N-hydroxy-2-({[4′-(2-hydroxyethoxy)biphenyl-4-yl]carbonyl}amino)-N′-[(6-methylpyridin-2-yl)methyl]propanediamide] | < 10 |
| O=C(NC(C(=O)NO)C(=O)NCCc1ccccn1)c1ccc(-c2ccc(OCCO)cc2)cc1 (centres unmarked) [Compound 151, N-hydroxy-2-({[4′-(2-hydroxyethoxy)biphenyl-4-yl]carbonyl}amino)-N′-[2-(pyridin-2-yl)ethyl]propanediamide] | < 10 |
| O=C1COc2ccc(CNC(=O)C(NC(=O)c3ccc(-c4ccc(OCCO)cc4)cc3)C(=O)NO)nc2N1 (centres unmarked) [Compound 152, N-hydroxy-2-({[4′-(2-hydroxyethoxy)biphenyl-4-yl]carbonyl}amino)-N′-[(3-oxo-3,4-dihydro-2H-pyrido[3,2-b][1,4]oxazin-6-yl)methyl]propanediamide] | < 10 |
| CNC(=O)C(C(=O)NO)N(C(=O)c1ccc(-c2ccc(OCCO)cc2)cc1)C1CC1 (centres unmarked) [Compound 154, 2-(cyclopropyl {[4′-(2-hydroxyethoxy)biphenyl-4-yl]carbonyl}amino)-N-hydroxy-N′-methylpropanediamide] | 10 to 100 |
| Cc1nnc(CNC(=O)C(NC(=O)c2ccc(-c3ccc(OCCO)cc3)cc2)C(=O)NO)s1 (centres unmarked) [Compound 155, N-hydroxy-2-({[4′-(2-hydroxyethoxy)biphenyl-4-yl]carbonyl}amino)-N′-[(5-methyl-1,3,4-thiadiazol-2-yl)methyl]propanediamide] | < 10 |
| Cn1ccnc1CNC(=O)C(NC(=O)c1ccc(-c2ccc(OCCO)cc2)cc1)C(=O)NO (centres unmarked) [Compound 156, N-hydroxy-2-({[4′-(2-hydroxyethoxy)biphenyl-4-yl]carbonyl}amino)-N′-[(1-methyl-1H-imidazol-2-yl)methyl]propanediamide] | < 10 |

| Compound | IC50 [nM] |
| --- | --- |
| O=C(NC(C(=O)NO)C(=O)NCc1cocn1)c1ccc(-c2ccc(OCCO)cc2)cc1 (centres unmarked) [Compound 157, N-hydroxy-2-({[4′-(2-hydroxyethoxy)biphenyl-4-yl]carbonyl}amino)-N′-(1,3-oxazol-4-ylmethyl)propanediamide] | < 10 |
| Cn1cnc(CNC(=O)C(NC(=O)c2ccc(-c3ccc(OCCO)cc3)cc2)C(=O)NO)c1 (centres unmarked) [Compound 158, N-hydroxy-2-({[4′-(2-hydroxyethoxy)biphenyl-4-yl]carbonyl}amino)-N′-[(1-methyl-1H-imidazol-4-yl)methyl]propanediamide] | < 10 |
| CCN(C(=O)c1ccc(-c2ccccc2)cc1)C(C(=O)NC)C(=O)NO (centres unmarked) [Compound 159, 2-[(biphenyl-4-ylcarbonyl)(ethyl)amino]-N-hydroxy-N′-methylpropanediamide] | 10 to 100 |
| O=C(NC(C(=O)NO)C(=O)NCC1CN(Cc2ccccc2)CCO1)c1ccc(-c2ccc(OCCO)cc2)cc1 (centres unmarked) [Compound 160, N-[(4-benzylmorpholin-2-yl)methyl]-N′-hydroxy-2-({[4′-(2-hydroxyethoxy)biphenyl-4-yl]carbonyl}amino)propanediamide] | < 10 |
| CN(C(=O)c1ccc(-c2ccccc2)cc1)C(C(=O)NO)C(=O)NCc1ccccn1 (centres unmarked) [Compound 161, 2-[(biphenyl-4-ylcarbonyl)(methyl)amino]-N-hydroxy-N′-(pyridin-2-ylmethyl)propanediamide] | 10 to 100 |
| O=C(NC(C(=O)NO)C(=O)NCC1CNCCO1)c1ccc(-c2ccc(OCCO)cc2)cc1 (centres unmarked) [Compound 162, N-hydroxy-2-({[4′-(2-hydroxyethoxy)biphenyl-4-yl]carbonyl}amino)-N′-(morpholin-2-ylmethyl)propanediamide] | 10 to 100 |
| CNC(=O)C(C(=O)NO)N(C(=O)c1ccc(-c2ccccc2)cc1)C1CCC1 (centres unmarked) [Compound 163, 2-[(biphenyl-4-ylcarbonyl)(cyclobutyl)amino]-N-hydroxy-N′-methylpropanediamide] | 10 to 100 |
| CNC(=O)C(C)(NC(=O)c1ccc(-c2ccccc2)cc1)C(=O)NO (centres unmarked) [Compound 164, 2-[(Biphenyl-4-ylcarbonyl)amino]-N-hydroxy-N′,2-dimethylpropanediamide] | > 100 |
| CNC(=O)C(C(=O)NO)N(C)C(=O)c1ccc(-c2ccc(CCCO)cc2)cc1 (centres unmarked) [Compound 165, N-hydroxy-2-[{[4′-(3-hydroxypropyl)biphenyl-4-yl]carbonyl}(methyl)amino]-N′-methylpropanediamide] | < 10 |
| CNC(=O)C(C(=O)NO)N(CCOC)C(=O)c1ccc(-c2ccccc2)cc1 (centres unmarked) [Compound 166, 2-[(biphenyl-4-ylcarbonyl)(2-methoxyethyl)amino]-N-hydroxy-N′-methylpropanediamide] | 10 to 100 |
| CNC(=O)C(C(=O)NO)N(C)C(=O)c1ccc(C#Cc2ccc(CN3CCOCC3)cc2)cc1 (centres unmarked) [Compound 167, N-hydroxy-N′-methyl-2-[methyl(4-{[4-(morpholin-4-ylmethyl)phenyl]ethynyl}benzoyl)amino]propanediamide] | < 10 |
| CNC(=O)C(C(=O)NO)N(C)C(=O)c1ccc(-c2ccncc2)cc1 (centres unmarked) [Compound 169, N-hydroxy-N′-methyl-2-{methyl[4-(pyridin-4-yl)benzoyl]amino}propanediamide] | 10 to 100 |
| CN(C(=O)c1ccc(-c2ccccc2)cc1)C(C(=O)NO)C(=O)NCc1ncccn1 (centres unmarked) [Compound 170, 2-[(biphenyl-4-ylcarbonyl)(methyl)amino]-N-hydroxy-N′-(pyrimidin-2-ylmethyl)propanediamide] | > 100 |
| CCCNC(=O)C(C(=O)NO)N(C)C(=O)c1ccc(-c2ccccc2)cc1 (centres unmarked) [Compound 171, 2-[(biphenyl-4-ylcarbonyl)(methyl)amino]-N-hydroxy-N′-propylpropanediamide] | > 100 |
| CN(C)C(=O)CNC(=O)C(C(=O)NO)N(C)C(=O)c1ccc(-c2ccccc2)cc1 (centres unmarked) [Compound 173, 2-[(biphenyl-4-ylcarbonyl)(methyl)amino]-N-[2-(dimethylamino)-2-oxoethyl]-N′-hydroxypropanediamide] | > 100 |
| CNC(=O)C(C(=O)NO)N(CC(F)F)C(=O)c1ccc(-c2ccccc2)cc1 (centres unmarked) [Compound 174, 2-[(biphenyl-4-ylcarbonyl)(2,2-difluoroethyl)amino]-N-hydroxy-N′-methylpropanediamide] | < 10 |
| CN(C(=O)c1ccc(-c2ccccc2)cc1)C(C(=O)NO)C(=O)NC1CC1 (centres unmarked) [Compound 175, 2-[(biphenyl-4-ylcarbonyl)(methyl)amino]-N-cyclopropyl-N′-hydroxypropanediamide] | > 100 |
